These results are taken from patent US20260085053A1, “BENZOFURAN DERIVATIVES AS SIK INHIBITORS AND THE USE THEREOF” (BEONE MEDICINES I GMBH, priority 2023, published 2026).

Assay [1] addresses T1, SIK2 kinase (full length, Thermo Fisher) (Homo sapiens, UniProt Q9H0K1).
T1 construct: SIK2 kinase (full length, Thermo Fisher); purchased Thermo Fisher
Briefly: Biochemical activities determination for SIK2 protein (TR-FRET). The following applies: 80 uM ATP, 0.5 μM substrate. In a few lines: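 Full-length SIK2 preincubated 60 min with 0–10 μM compound, then reacted 180 min at room temperature with 80 uM ATP and 0.5 μM biotinylated substrate (pH 7.5 Tris/MgCl2 buffer). Phosphorylation detected by TR-FRET (665/620 nm ratio, cryptate antibody/streptavidin-XL665) after overnight incubation; IC50 from four-parameter logistic fit.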

For assay [2], the target named is T2, SIK1 kinase (aa1-303, Thermo Fisher) (Homo sapiens, UniProt P57059).
T2 construct: SIK1 kinase (aa1-303, Thermo Fisher); purchased Thermo Fisher
T2 sequence (P57059 1-303): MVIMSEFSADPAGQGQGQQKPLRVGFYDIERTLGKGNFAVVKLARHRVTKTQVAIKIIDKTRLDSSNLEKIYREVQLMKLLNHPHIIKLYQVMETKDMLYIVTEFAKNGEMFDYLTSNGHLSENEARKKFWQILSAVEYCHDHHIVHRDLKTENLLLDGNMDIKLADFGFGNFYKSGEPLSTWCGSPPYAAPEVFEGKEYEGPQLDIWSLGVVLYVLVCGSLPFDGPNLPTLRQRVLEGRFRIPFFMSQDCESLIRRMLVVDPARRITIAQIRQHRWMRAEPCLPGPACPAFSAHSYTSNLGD
As to the kind of experiment: Biochemical activities determination for SIK1 protein (TR-FRET). The following applies: 110 uM ATP, 0.5 μM STK1 substrate. In short, it runs like this:
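TR-FRET kinase assay with SIK1 (aa1-303), 110 uM ATP, 0.5 μM STK1 substrate and 0-10 μM compound in Tris pH 7.5 with MgCl2, EGTA, DTT, Triton X-100. Enzyme preincubated with compound 60 min, reaction 180 min at room temperature; 665/620 nm ratio after overnight detection; IC50 from four-parameter logistic fit.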

Assay [3] deals with T3, SIK3 kinase (aa59-365, Thermo Fisher) (Homo sapiens, UniProt Q9Y2K2).
T3 construct: SIK3 kinase (aa59-365, Thermo Fisher); purchased Thermo Fisher
T3 sequence (Q9Y2K2 59-365): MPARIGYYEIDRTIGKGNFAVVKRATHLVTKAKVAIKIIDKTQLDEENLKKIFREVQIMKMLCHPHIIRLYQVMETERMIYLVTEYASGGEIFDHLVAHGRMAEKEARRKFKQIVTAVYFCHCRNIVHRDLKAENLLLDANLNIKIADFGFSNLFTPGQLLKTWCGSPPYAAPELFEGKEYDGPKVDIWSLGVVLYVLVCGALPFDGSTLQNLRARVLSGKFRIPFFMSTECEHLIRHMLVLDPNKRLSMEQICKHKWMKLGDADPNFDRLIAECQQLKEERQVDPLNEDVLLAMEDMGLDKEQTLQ
Briefly: Biochemical activities determination for SIK3 protein (TR-FRET). The following applies: 125 uM ATP, 0.5 μM STK1 substrate. In a few lines:
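SIK3 (aa59-365) was preincubated with compound (0-10 μM) for 60 min at room temperature in Tris buffer pH 7.5. The reaction was then started with 125 uM ATP and 0.5 μM STK1 substrate and run 180 min at room temperature. Phospho-substrate was detected by HTRF (665/620 nm ratio), and IC50 came from a four-parameter logistic fit.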

T1 sequence (Q9H0K1 whole entry): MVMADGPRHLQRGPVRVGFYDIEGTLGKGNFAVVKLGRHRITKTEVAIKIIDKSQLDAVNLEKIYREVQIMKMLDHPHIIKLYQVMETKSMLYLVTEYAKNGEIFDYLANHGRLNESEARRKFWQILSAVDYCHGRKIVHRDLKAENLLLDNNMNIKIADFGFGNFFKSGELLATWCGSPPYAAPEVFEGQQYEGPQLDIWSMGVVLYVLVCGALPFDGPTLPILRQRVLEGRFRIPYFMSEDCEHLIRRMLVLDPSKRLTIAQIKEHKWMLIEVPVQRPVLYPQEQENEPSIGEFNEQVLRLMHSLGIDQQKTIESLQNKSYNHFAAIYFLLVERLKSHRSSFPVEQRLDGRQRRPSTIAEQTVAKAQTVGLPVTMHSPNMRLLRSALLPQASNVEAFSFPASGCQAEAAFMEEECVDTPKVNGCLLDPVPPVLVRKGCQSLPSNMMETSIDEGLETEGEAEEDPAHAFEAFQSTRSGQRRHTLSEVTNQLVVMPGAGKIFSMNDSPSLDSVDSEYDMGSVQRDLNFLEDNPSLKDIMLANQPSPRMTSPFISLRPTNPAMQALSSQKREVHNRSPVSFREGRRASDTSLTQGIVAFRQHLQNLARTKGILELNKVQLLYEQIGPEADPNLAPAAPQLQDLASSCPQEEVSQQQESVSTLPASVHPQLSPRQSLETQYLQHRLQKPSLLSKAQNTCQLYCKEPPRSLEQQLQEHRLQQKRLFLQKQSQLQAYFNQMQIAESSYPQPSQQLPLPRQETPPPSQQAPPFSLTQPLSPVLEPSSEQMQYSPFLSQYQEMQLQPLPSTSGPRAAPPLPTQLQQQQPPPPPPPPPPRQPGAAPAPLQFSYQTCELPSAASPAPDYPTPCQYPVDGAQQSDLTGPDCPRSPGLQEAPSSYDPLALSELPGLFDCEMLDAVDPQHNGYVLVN

With `COc1cc(-c2coc3cc(OCCN4CCCC4)ccc23)cc(OC(F)F)c1C(=O)NC1CC1` [Compound 62, N-cyclopropyl-2-(difluoromethoxy)-6-methoxy-4-(6-(2-(pyrrolidin-1-yl)ethoxy)benzofuran-3-yl)benzamide], the IC50 was 76 nM in assay [1], over 10000 nM in assay [2] and 122 nM in assay [3].
For `CN1CCC(n2cc(-c3ccc4c(-c5cc6c(c(OC(F)F)c5)C(=O)N(CC(F)(F)F)CC6)coc4c3)cn2)CC1` [Compound 46, 8-(difluoromethoxy)-6-(6-(1-(1-methylpiperidin-4-yl)-1H-pyrazol-4-yl)benzofuran-3-yl)-2-(2,2,2-trifluoroethyl)-3,4-dihydroisoquinolin-1 (2H)-one], the IC50 is 7.8 nM in assay [1], 430 nM in assay [2] and 36.1 nM in assay [3].
Turning to `COc1cc(-c2coc3cc(-c4cnn(C5CN(CCC#N)C5)c4)ccc23)cc2c1C(=O)N(CC(F)(F)F)CC2` [Compound 54, 3-(3-(4-(3-(8-methoxy-1-oxo-2-(2,2,2-trifluoroethyl)-1,2,3,4-tetrahydroisoquinolin-6-yl)benzofuran-6-yl)-1H-pyrazol-1-yl)azetidin-1-yl) propanenitrile], the IC50 in assay [1] worked out at 6.9 nM; in assay [2], 326 nM; in assay [3], 19 nM.
For the compound `O=C1c2c(cc(-c3coc4cc(-c5cnn(C6CCOC6)c5)ccc34)cc2OC(F)F)CCN1CC(F)(F)F` (stereo not drawn) [Compound 40, 8-(difluoromethoxy)-6-(6-(1-(tetrahydrofuran-3-yl)-1H-pyrazol-4-yl)benzofuran-3-yl)-2-(2,2,2-trifluoroethyl)-3,4-dihydroisoquinolin-1 (2H)-one], the values for the IC50 in assay [1], in assay [2] and in assay [3] were 14 nM, 537 nM and 31 nM, respectively.
For `COc1cc(-c2coc3cc(-c4cnn(C)c4)c(F)cc23)cc2c1C(=O)N(CC(F)(F)F)CC2` [Example 12, 6-(5-fluoro-6-(1-methyl-1H-pyrazol-4-yl)benzofuran-3-yl)-8-methoxy-2-(2,2,2-trifluoroethyl)-3,4-dihydroisoquinolin-1 (2H)-one], the half-maximal inhibitory concentration (IC50) in assay [1] came out at 59 nM; in assay [2], 2280 nM; in assay [3] it was 186 nM.
For the compound `COc1cc(-c2coc3cc(-c4cnn(C5CCN(C)C5)c4)ccc23)cc(OC(F)F)c1C(=O)N[C@@H]1C[C@@H]1F` (stereo partly drawn) [Compound 38, 2-(difluoromethoxy)-N-((1R,2S)-2-fluorocyclopropyl)-6-methoxy-4-(6-(1-(1-methylpyrrolidin-3-yl)-1H-pyrazol-4-yl)benzofuran-3-yl)benzamide], the IC50 in assay [1] worked out at 1.7 nM; in assay [2], 24 nM; in assay [3], 3.9 nM.
The like results for `COc1cc(-c2coc3cc(-c4cnn(C)c4)ccc23)cc2c1C(=O)N(Cc1ccccc1)CC2` [Compound 31, 2-benzyl-8-methoxy-6-(6-(1-methyl-1H-pyrazol-4-yl)benzofuran-3-yl)-3,4-dihydroisoquinolin-1 (2H)-one] were, in that order, 673 nM, 5450 nM and 882 nM.
`COc1cc(-c2coc3cc(-c4cnn(C)c4)ccc23)cc(OC(F)F)c1C(=O)N[C@@H]1C[C@@H]1F` [Compound 26, 2-(difluoromethoxy)-N-((1R,2S)-2-fluorocyclopropyl)-6-methoxy-4-(6-(1-methyl-1H-pyrazol-4-yl)benzofuran-3-yl)benzamide]: the IC50 in assay [1] amounted to 3.4 nM; in assay [2] it was 33 nM; in assay [3] it was 5 nM.
Consider `COc1cc(-c2coc3cc(-c4cnn(C5CCOC5)c4)ccc23)cc2c1C(=O)N(CC(F)(F)F)CC2` (stereo not drawn) [Compound 49, 8-methoxy-6-(6-(1-(tetrahydrofuran-3-yl)-1H-pyrazol-4-yl)benzofuran-3-yl)-2-(2,2,2-trifluoroethyl)-3,4-dihydroisoquinolin-1 (2H)-one], for which the figures for the IC50 in assay [1], in assay [2] and in assay [3] were 11 nM, 337 nM and 25 nM, respectively.
For the compound `COc1cc(-c2coc3cc(OCCCN4CCN(C)CC4)ccc23)cc(OC(F)F)c1C(=O)N[C@@H]1C[C@@H]1F` [Compound 85, 2-(difluoromethoxy)-N-((1R,2S)-2-fluorocyclopropyl)-6-methoxy-4-(6-(3-(4-methylpiperazin-1-yl)propoxy)benzofuran-3-yl)benzamide], the IC50 in assay [1] worked out at 8.1 nM; in assay [2] it was 236 nM; in assay [3], 32.8 nM.
As for `COc1cc(-c2coc3cc(OCCN4CCOCC4)ccc23)cc2c1C(=O)N(CC(F)(F)F)CC2` [Compound 58, 8-methoxy-6-(6-(2-morpholinoethoxy)benzofuran-3-yl)-2-(2,2,2-trifluoroethyl)-3,4-dihydroisoquinolin-1 (2H)-one], the IC50 in assay [1] is 167 nM; in assay [2], over 10000 nM; in assay [3], 391 nM.
For the compound `COc1cc(-c2coc3cc(OCCN4CCCC4C(F)(F)F)ccc23)cc(OC(F)F)c1C(=O)N[C@@H]1C[C@@H]1F` (stereo partly drawn) [Compound 95, 2-(difluoromethoxy)-N-((1R,2S)-2-fluorocyclopropyl)-6-methoxy-4-(6-(2-(2-(trifluoromethyl)pyrrolidin-1-yl)ethoxy)benzofuran-3-yl)benzamide], the figures for the IC50 in assay [1], in assay [2] and in assay [3] were 507 nM, over 10000 nM and 117 nM, respectively.
Take `O=C(NC1CC1)c1c(OC(F)F)cc(-c2coc3cc(OCCN4CCCC4)ccc23)cc1O[C@H]1CC[C@@H](O)CC1` [Compound 102, N-cyclopropyl-2-(difluoromethoxy)-6-(((1s,4s)-4-hydroxycyclohexyl)oxy)-4-(6-(2-(pyrrolidin-1-yl)ethoxy)benzofuran-3-yl)benzamide]: the IC50 is 2480 nM in assay [1], over 10000 nM in assay [2] and over 10000 nM in assay [3].
In the case of `COc1cc(-c2coc3cc(OCCN4CC[C@H](C(C)C)C4)ccc23)cc(OC(F)F)c1C(=O)N[C@@H]1C[C@@H]1F` [Compound 90, 2-(difluoromethoxy)-N-((1R,2S)-2-fluorocyclopropyl)-4-(6-(2-((R)-3-isopropylpyrrolidin-1-yl)ethoxy)benzofuran-3-yl)-6-methoxybenzamide], the values for the half-inhibitory concentration (IC50) in assay [1], in assay [2] and in assay [3] were 13 nM, 2350 nM and 33 nM, respectively.
As for `CNc1cc(-c2coc3cc(OCCN4CCCC4)ccc23)cc(OC(F)F)c1C(=O)NC1CC1` [Compound 122, N-cyclopropyl-2-(difluoromethoxy)-6-(methylamino)-4-(6-(2-(pyrrolidin-1-yl)ethoxy)benzofuran-3-yl)benzamide], the IC50 was determined as 45 nM in assay [1], 3960 nM in assay [2] and 158 nM in assay [3].
With `COc1cc(-c2coc3cc(OCCN4CCCC4)ccc23)cc(OC(F)F)c1C(=O)NC1CCCC1` [Compound 128, N-cyclopentyl-2-(difluoromethoxy)-6-methoxy-4-(6-(2-(pyrrolidin-1-yl)ethoxy)benzofuran-3-yl)benzamide], the IC50 was 156 nM in assay [1], over 10000 nM in assay [2] and 812 nM in assay [3].
As to `CCc1nnc(-c2c(OC)cc(-c3coc4cc(-c5cnn(C)c5)ccc34)cc2OC)o1` [Compound 36, 2-(2,6-dimethoxy-4-(6-(1-methyl-1H-pyrazol-4-yl)benzofuran-3-yl)phenyl)-5-ethyl-1,3,4-oxadiazole], the IC50 in assay [1] stood at 144 nM; in assay [2], 2090 nM; in assay [3], 305 nM.
In the case of `COc1cc(-c2coc3cc(-c4cnn(C)c4)ccc23)cc2c1C(=O)N(CC(F)(F)F)CC2` [Example 1, 8-methoxy-6-(6-(1-methyl-1H-pyrazol-4-yl)benzofuran-3-yl)-2-(2,2,2-trifluoroethyl)-3,4-dihydroisoquinolin-1 (2H)-one], the IC50 was determined as 10 nM in assay [1], 303 nM in assay [2] and 19 nM in assay [3].
For `Cn1cc(-c2ccc3c(-c4cc5c(c(OC(F)F)c4)C(=O)N(CC(N)=O)CC5)coc3c2)cn1` [Compound 24, 2-(8-(difluoromethoxy)-6-(6-(1-methyl-1H-pyrazol-4-yl)benzofuran-3-yl)-1-oxo-3,4-dihydroisoquinolin-2 (1H)-yl) acetamide], the IC50 in assay [1] amounted to 281 nM; in assay [2], 3340 nM; in assay [3], 320 nM.
As to `CN1CC[C@@H](COc2cc(-c3coc4cc(OCCN5CCCC5)ccc34)cc(OC(F)F)c2C(=O)NC2CC2)C1` [Compound 112, (R)—N-cyclopropyl-2-(difluoromethoxy)-6-((1-methylpyrrolidin-3-yl)methoxy)-4-(6-(2-(pyrrolidin-1-yl)ethoxy)benzofuran-3-yl)benzamide], the IC50 in assay [1] was 1300 nM; in assay [2], over 10000 nM; in assay [3] it was 7620 nM.
The like results for `COc1cc(-c2coc3cc(-c4cn(C)nc4Cl)ccc23)cc2c1C(=O)N(CC(F)(F)F)CC2` [Compound 23, 6-(6-(3-chloro-1-methyl-1H-pyrazol-4-yl)benzofuran-3-yl)-8-methoxy-2-(2,2,2-trifluoroethyl)-3,4-dihydroisoquinolin-1 (2H)-one] were, in that order, 223 nM, over 10000 nM and 387 nM.
